Experimental data published in US20230372525A1, “TRANSGLUTAMINASE CONJUGATION METHOD WITH AMINO ACID-BASED LINKERS” (ARARIS BIOTECH AG, priority 2020, published 2023).
[ ]: non-standard residue; d: D form. The star is where a group is joined. N3 = [N-]=[N+]=N*; βAla = NCCC(=O)O

Assays:
[1] = system: native, glycosylated antibody trastuzumab (anti Her2 IgG); experiment: MTG-mediated conjugation of peptide linkers to native glycosylated trastuzumab, conjugation efficiency by LC-MS under reducing conditions; assay type: biochemical; conditions: for Conjugation efficiency (%) to antibody: trastuzumab 5 mg/mL, 20 molar equivalents linker, 50 mM Tris pH 7.6; for Conjugation efficiency (%) to antibody / Conjugation efficiency (%) Trastuzumab with conditions 3: MTG 3 U/mg, 24 hours at 37° C.; for Conjugation efficiency (%) antibody with conditions 2: conditions 2: trastuzumab 1 mg/mL, MTG 6 U/mg, 80 molar equivalents linker, 20 hours at 37° C.; for Conjugation efficiency (%) Trastuzumab with conditions 3: conditions 3: 5 mg/mL antibody, 5 molar equivalents linker
Protocol: (§1) Linkers are used as obtained and dissolved at a suitable stock concentration (e.g. 25 mM) following the manufacturers instruction, aliquots are prepared and stored at −20° C. Two antibodies of IgG-subclass (antibody 1: anti Her2 IgG1, antibody 2: anti CD38 IgG1) are modified as follows: 5 mg/mL of non-deglycosylated antibody (˜33.33 μM) is mixed with 20 molar equivalents of amino acid-based linker (i.e. ˜667 μM), 3 U/mg of antibody and a suitable buffer. The reaction mixture is incubated for 20 h at 37° C. and then subjected for LC-MS analysis under reducing conditions. Other reaction conditions have been used as indicated in the corresponding example.
(§2) For conjugation of the peptide linkers (see FIG. 2 for structures), 5 mg/mL of native, glycosylated monoclonal antibody in 50 mM Tris pH 7.6, microbial transglutaminase (MTG, Zedira) at a concentration of 3 U/mg in 50 mM Tris pH 7.6 or water, and 20 molar equivalents of the indicated peptide linker were used and incubated for 24 hours at 37° C. in a rotating thermomixer. Conjugation efficiency was assessed by LC-MS under DTT reduced conditions. Reduction of samples was achieved by incubation of antibody-linker-conjugates (ALCs) for 15 min at 37° C. in 50 mM DTT (final) and 50 mM Tris buffer. Probes were analyzed on a Xevo G2-XS QTOF (Waters) coupled to an Acquity UPLC H-Class System (Waters) and an ACQUITY UPLC BEH C18 Column. Conjugation efficiency (CE) was calculated from deconvoluted spectra and presented in %. Intensities resulting from both glycoforms (G1F and G0F) were taken into account for the calculation, according to the formula: […]
For conjugation of the peptide linkers (see FIG. 2 for structures), 1 mg/mL of native, glycosylated monoclonal antibody in 50 mM Tris pH 7.6, microbial transglutaminase (MTG, Zedira) at a concentration of 6 U/mg in 50 mM Tris pH 7.6 or water, and 80 molar equivalents of the indicated peptide linker were used and incubated for 20 hours at 37° C. in a rotating thermomixer. These are defined as “conditions 2”. Conjugation efficiency was assessed by LC-MS under DTT reduced conditions. Reduction of samples was achieved by incubation of antibody-linker-conjugates (ALCs) for 15 min at 37° C. in 50 mM DTT (final) and 50 mM Tris buffer. Probes were analyzed on a Xevo G2-XS QTOF (Waters) coupled to an Acquity UPLC H-Class System (Waters) and a ACQUITY UPLC BEH C18 Column. Conjugation efficiency (CE) was calculated from deconvoluted spectra and presented in %. Intensities resulting from both glycoforms (G1F and G0F) were taken into account for the calculation, according to the formula: […]
(§3) For conjugation of the peptide linkers (see FIG. 2 for structures), 5 mg/mL of native, glycosylated monoclonal antibody in 50 mM Tris pH 7.6, microbial transglutaminase (MTG, Zedira) at a concentration of 3 U/mg in 50 mM Tris pH 7.6 or water, and 5 molar equivalents of the indicated peptide linker were used and incubated for 24 hours at 37° C. in a rotating thermomixer. These are defined as “conditions 3”. Conjugation efficiency was assessed by LC-MS under DTT reduced conditions. Reduction of samples was achieved by incubation of antibody-linker-conjugates (ALCs) for 15 min at 37° C. in 50 mM DTT (final) and 50 mM Tris buffer. Probes were analyzed on a Xevo G2-XS QTOF (Waters) coupled to an Acquity UPLC H-Class System (Waters) and a ACQUITY UPLC BEH C18 Column. Conjugation efficiency (CE) was calculated from deconvoluted spectra and presented in %. Intensities resulting from both glycoforms (G1F and G0F) were taken into account for the calculation, according to the formula: […]

[2] = system: various tumor cell lines; conditions: cited from earlier work
[3] = system: native, glycosylated antibody daratumumab (anti CD38 IgG); experiment: MTG-mediated conjugation of peptide linkers to native glycosylated daratumumab, conjugation efficiency by LC-MS under reducing conditions; assay type: biochemical; conditions: MTG 3 U/mg, 24 hours at 37° C.; for Conjugation efficiency (%) Daratumumab with conditions 3: conditions 3: 5 mg/mL antibody, 5 molar equivalents linker; for Conjugation efficiency (%) to antibody: daratumumab 5 mg/mL, 20 molar equivalents linker, 50 mM Tris pH 7.6
Protocol: as §1, §2, §3

[4] = target: DNA-dependent RNA polymerase II (Homo sapiens, UniProt P24928); conditions: read-out: KD of the complex between amanitin and RNA-polymerase II; cited from earlier work

| Compound | Conjugation efficiency (%) to antibody [1] [%] | IC50, cytostatic effects on various tumor cell lines [2] | Conjugation efficiency (%) Daratumumab with conditions 3 [3] [%] | Conjugation efficiency (%) to antibody [3] [%] | Conjugation efficiency (%) antibody with conditions 2 [1] [%] | Conjugation efficiency (%) Trastuzumab with conditions 3 [1] [%] | Kd [4] [nM] |
| --- | --- | --- | --- | --- | --- | --- | --- |
| SAGRK(N3)-NH2 [reference compound] | 0 | – | – | – | – | – | – |
| CC[C@H](C)[C@H](NC(=O)[C@H]1CCCCN1C)C(=O)N(COC(=O)CC(C)C)[C@H](C[C@@H](OC(C)=O)c1nc(C(=O)N[C@@H](Cc2ccc(O)cc2)C[C@H](C)C(=O)O)cs1)C(C)C [Tubulysin A] | – | picomolar range | – | – | – | – | – |
| AARK(N3)-NH2 [reference compound] | 0 | – | – | – | – | – | – |
| LGRC-NH2 [reference compound] | 0 | – | – | – | – | – | – |
| NH2-C5-ValArg-NH2 [NT44] | 100 | – | 73 | 95 | 88 | 77 | – |
| NH2-C6-AspArg-NH2 [NT66] | 64 | – | – | 66 | – | – | – |
| NH2-C4-ValCit-NH2 [NT39] | 67 | – | – | – | 63 | – | – |
| NH2-C6-GRK(N3)-NH2 [NT42] | 67 | – | – | – | 38 | – | – |
| NH2-C5-GRK(N3)-NH2 [NT36] | 84 | – | 72 | 93 | 56 | 75 | – |
| NH2-C3-GRK(N3)-NH2 [NT38] | 53 | – | – | – | 36 | – | – |
| NH2-C2-GRK(N3)-NH2 (H-[βAla]GRK(N3)-NH2) [NT37] | 70 | – | – | – | 38 | – | – |
| VGRC-NH2 [reference compound] | 0 | – | – | – | – | – | – |
| NH2-C1-ARK(N3)-NH2 (GARK; HELM PEPTIDE1{G.A.R.[[N-]=[N+]=NCCCC[C@H](N[*:1])C(=O)[*:2]].[am]}$$$$V2.0; SMILES C[C@H](NC(=O)CN)C(=O)N[C@@H](CCCNC(=N)N)C(=O)N[C@@H](CCCCN=[N+]=[N-])C(N)=O) [NT28] | 89 | – | – | – | – | – | – |
| NH2-C1-GRK(N3)-NH2 (GGRK; HELM PEPTIDE1{G.G.R.[[N-]=[N+]=NCCCC[C@H](N[*:1])C(=O)[*:2]].[am]}$$$$V2.0; SMILES [N-]=[N+]=NCCCC[C@H](NC(=O)[C@H](CCCNC(=N)N)NC(=O)CNC(=O)CN)C(N)=O) [NT24] | 99 | – | 89 | 95 | 78 | 97 | – |
| NH2-C6-IleArg-NH2 [NT65] | 96 | – | 79 | 95 | – | 78 | – |
| RGRK(N3)-NH2 [reference compound] | 0 | – | – | – | – | – | – |
| NH2-C6-ThrArg-NH2 [NT64] | 95 | – | 92 | 93 | – | 92 | – |
| amanitin | – | – | – | – | – | – | 3 |
| NH2-C4-GRK(N3)-NH2 [NT41] | 99 | – | 88 | 98 | 70 | 88 | – |
| NH2-C4-ValArg-NH2 [NT40] | 96 | – | 51 | 89 | 83 | 58 | – |
| NH2-C6-TrpArg-NH2 [NT67] | 82 | – | – | 83 | – | – | – |
| NH2-C5-ValCit-NH2 [NT43] | 83 | – | – | – | 79 | – | – |
